In patent publication US11524966B1 (Valo Early Discovery, Inc., priority 2017, dated 2022):

Molecular target: T1, USP28 (USP28-5(1-1077)-TEV-6*His; LifeSensors) (Homo sapiens, UniProt Q96RU2)
T1 construct: construct USP28 (USP28-5(1-1077)-TEV-6*His; LifeSensors); TEV cleavage site (C); 6xHis (C); purchased LifeSensors
T1 sequence (Q96RU2 1-1077): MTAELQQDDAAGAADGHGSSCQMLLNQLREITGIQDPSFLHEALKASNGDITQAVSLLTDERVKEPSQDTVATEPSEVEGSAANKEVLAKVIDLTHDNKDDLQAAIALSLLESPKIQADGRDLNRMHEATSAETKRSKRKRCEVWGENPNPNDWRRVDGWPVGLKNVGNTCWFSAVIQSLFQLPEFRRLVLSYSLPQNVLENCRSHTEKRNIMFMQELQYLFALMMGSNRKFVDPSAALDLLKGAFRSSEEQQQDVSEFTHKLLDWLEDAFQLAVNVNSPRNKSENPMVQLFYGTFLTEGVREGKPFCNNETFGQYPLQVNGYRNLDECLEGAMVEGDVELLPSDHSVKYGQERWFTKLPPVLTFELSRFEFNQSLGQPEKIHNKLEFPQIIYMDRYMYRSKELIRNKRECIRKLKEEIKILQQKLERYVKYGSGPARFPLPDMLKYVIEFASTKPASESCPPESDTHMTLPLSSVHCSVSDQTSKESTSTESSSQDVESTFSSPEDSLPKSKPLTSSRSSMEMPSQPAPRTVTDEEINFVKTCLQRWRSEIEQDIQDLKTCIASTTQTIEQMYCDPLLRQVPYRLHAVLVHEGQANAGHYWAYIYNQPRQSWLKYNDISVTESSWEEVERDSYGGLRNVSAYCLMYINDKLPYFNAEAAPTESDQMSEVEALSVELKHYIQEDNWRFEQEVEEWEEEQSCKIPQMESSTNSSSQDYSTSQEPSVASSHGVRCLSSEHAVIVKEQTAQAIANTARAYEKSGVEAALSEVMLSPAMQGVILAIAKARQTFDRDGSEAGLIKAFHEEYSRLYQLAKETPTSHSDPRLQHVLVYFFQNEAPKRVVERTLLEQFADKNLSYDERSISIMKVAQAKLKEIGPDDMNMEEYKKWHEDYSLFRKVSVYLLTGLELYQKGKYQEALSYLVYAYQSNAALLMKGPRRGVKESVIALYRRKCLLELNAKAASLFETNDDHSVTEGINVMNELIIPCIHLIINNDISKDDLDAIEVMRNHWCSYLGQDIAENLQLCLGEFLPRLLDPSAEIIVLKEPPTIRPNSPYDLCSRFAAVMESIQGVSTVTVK
Assay: Ubiquitin-Rhodamine 110 Assay for USP28 Activity, Example A-1(b)
Type: biochemical
Conditions: Ubiquitin-Rhodamine 110 assay, Example A-1(b)
Description: Example A-1(b): Biochemical Assay: Ubiquitin-Rhodamine 110 Assay for USP28 Activity
Each assay was performed in a final volume of 20 μL in assay buffer containing 20 mM Tris-HCl (pH 8.0, (1M Tris-HCl, pH 8.0 solution; Corning 46-031-CM)), 2 mM CaCl2) (1M Calcium Chloride solution; Sigma #21114) 2 mM BME (2-Mercaptoethanol; Sigma 63689-25ML-F), 0.01% Prionex ([…] filtered, Sigma #G-0411), and 0.01% Triton X-100. Stock compound solutions were stored at −20° C. as 10 mM in DMSO. Up to 1 month prior to the assay, 2 mM test compounds were pre-dispensed into assay plates (Black, low volume; Corning #3820) and frozen at −20° C. Prestamped assay plates were allowed to come to room temperature on the day of the assay. For the screen, 100 nL of 2 mM was pre-dispensed for a final screening concentration of 10 μM (DMSO(fc)=0.5%). […] Plates were incubated stacked for 90 minutes at room temperature before fluorescence was read on the Envision (Excitation at 485 nm and Emission at 535 nm; Perkin Elmer) or on the PheraSTAR (Excitation at 485 nm and Emission at 535 nm; BMG Labtech).
For follow-up studies, each assay was performed in a final volume of 15 μL in assay buffer containing 20 mM Tris-HCl (pH 8.0, (1M Tris-HCl, pH 8.0 solution; Corning 46-031-CM)), 3 mM BME (2-Mercaptoethanol; Sigma 63689-25ML-F), 0.03% BGG (0.22 μM filtered, Sigma, G7516-25G), and 0.01% Triton X-100 (Sigma, T9284-10L). Nanoliter quantities of either an 8-point or 10-point, 3-fold serial dilution in DMSO was pre-dispensed into assay plates (Perkin Elmer, ProxiPlate-384 F Plus, #) for a final test concentration of either 25 μM to 11 nM or 25 μM to 1.3 nM, respectively. Enzyme USP28, construct USP28 (USP28-5(1-1077)-TEV-6*His; LifeSensors) concentration and incubation times were optimized for the maximal signal-to-background while maintaining initial velocity conditions at a fixed substrate concentration. The final concentration of the enzyme in the assay was 75 pM. Final substrate (Ub-Rh110; Ubiquitin-Rhodamine 110, R&D Systems #U-555) concentration was 25 nM with [Ub-Rh110]<<Km. 5 μL of 2× enzyme was added to assay plates (pre-stamped with compound) preincubated with USP28 for 30 minutes and then 5 μL of 2×Ub-Rh110 was added to assay plates. Plates were incubated stacked for 20 minutes at room temperature before 5 μL of stop solution was added (final concentration of 10 mM citric acid (Sigma, 251275-500G)). Fluorescence was read on the Envision (Excitation at 485 nm and Emission at 535 nm; Perkin Elmer) or on the PheraSTAR (Excitation at 485 nm and Emission at 535 nm; BMG Labtech).
For assay formats Example A-1(a), A-1(b), and A-2, data were reported as percent inhibition compared with control wells based on the following equation: % inh=1−((FLU−AveLow)/(AveHigh−AveLow)) where FLU=measured Fluorescence, AveLow=average Fluorescence of no enzyme control (n=16), and AveHigh=average Fluorescence of DMSO control (n=16). IC50 values were determined by curve fitting of the standard 4 parameter logistic fitting algorithm included in the Activity Base software package: IDBS XE Designer Model 205. Data is fitted using the Levenburg Marquardt algorithm.

Structure (SMILES): Cc1cnc2c(N)c(C(=O)N[C@H]3CCc4cc(N5CCNCC(F)(F)C5)ccc4C3)sc2n1 [Example 454, (S)-7-amino-N-(6-(6,6-difluoro-1,4-diazepan-1-yl)-1,2,3,4-tetrahydronaphthalen-2-yl)-3-methylthieno[2,3-b]pyrazine-6-carboxamide]
- USP28 A-1(b) IC50 range: +++ (0.05-0.2 μM)

Structure (SMILES): O=C(N[C@H]1COc2cc(N3CCNCC3)ccc2C1)c1cnn2c(Br)cccc12 [Example 457, (R)-7-bromo-N-(7-(piperazin-1-yl)chroman-3-yl)pyrazolo[1,5-a]pyridine-3-carboxamide]
- USP28 A-1(b) IC50 range: ++ (0.2-2 μM)
